Our source for the EC50 and 2.1/2.2 values is patent US11028051B2, “Tetrahydroquinoline-based bromodomain inhibitors” (St. Jude Children's Research Hospital, priority 2016, dated 2021).

Holding throughout (assay): competitive TR-FRET assay, BET-BD with acetylated peptide ligand
What all share (format): binding
(TR-FRET usually uses a lanthanide donor and a delayed reading to cut background.)

One experiment has as its target BRD2-BD1 (Homo sapiens (Human), UniProt P25440). The note with it: BRD2-BD1; Table 11 additional modifications; read-out: 2.1 EC50. The method, then: (§1) Inhibitor potency was determined using a competitive TR-FRET assay as detailed herein, measuring interaction of the respective BET-BD with an acetylated peptide ligand (Table 2).
A further experiment concerns the target BRD2-BD2 (Homo sapiens (Human), UniProt P25440). The conditions noted are these: for EC50: BRD2-BD2, Table 11 additional modifications, read-out: 2.2 EC50; for 2.1/2.2: ratio of BRD2-BD1 EC50 to BRD2-BD2 EC50 (selectivity). The method, then: as §1
A further experiment concerns the target BRD3-BD1 (Homo sapiens (Human), UniProt Q15059). The note with it: BRD3-BD1; Table 11 additional modifications; read-out: 3.1 EC50. The method, then: as §1
Another experiment deals with BRD4-BD1 (Homo sapiens (Human), UniProt O60885). The conditions noted are these: BRD4-BD1; Table 11 additional modifications; read-out: 4.1 EC50. The method, then:
as §1

The target in the next experiment is BRD4-BD2 (Homo sapiens (Human), UniProt O60885). The conditions noted are these: BRD4-BD2; Table 11 additional modifications; read-out: 4.2 EC50. The procedure: as §1
The next experiment deals with BRDT (Homo sapiens, UniProt Q58F21). The conditions noted are these: BRDT; Table 11 additional modifications; read-out: BRDT EC50. The method, then:
as §1

Where only a bound is given, the exact number is not on record here.

Sequence of BRD2-BD2 (P25440 344-453): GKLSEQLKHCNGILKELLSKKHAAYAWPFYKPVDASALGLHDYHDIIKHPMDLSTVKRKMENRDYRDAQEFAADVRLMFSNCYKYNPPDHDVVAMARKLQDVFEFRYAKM
Sequence of BRD3-BD1 (Q15059 34-140): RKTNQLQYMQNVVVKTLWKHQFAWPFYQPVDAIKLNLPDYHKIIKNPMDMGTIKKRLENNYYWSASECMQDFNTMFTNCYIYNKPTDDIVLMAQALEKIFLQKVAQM
Sequence of BRD2-BD1 (P25440 74-180): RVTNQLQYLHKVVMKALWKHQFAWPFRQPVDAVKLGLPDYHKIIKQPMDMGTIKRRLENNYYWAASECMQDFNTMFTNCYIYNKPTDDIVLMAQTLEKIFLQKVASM

As a reminder, the EC50 is the concentration giving half of the maximal effect. With `CC(=O)Nc1cccc(-c2ccc3c(c2)[C@H](NC(=O)OC(C)C)C[C@H](C)N3C(C)=O)c1` [compound 1], the EC50 came out at 0.85 µM at BRD2-BD1; 0.29 µM at BRD2-BD2; 0.62 µM on BRD3-BD1; 0.67 µM at BRD4-BD1; 0.23 µM on BRD4-BD2; 5.9 µM on BRDT. The 2.1/2.2 at BRD2-BD2 was determined as 2.9.
Take `COC(=O)c1cccc(N[C@@H]2C[C@H](C)N(C(C)=O)c3ccc(-c4cccc(NC(C)=O)c4)cc32)c1` [compound 7]: the EC50 at BRD2-BD1 worked out at 81 µM; at BRD2-BD2, 0.08 µM; at BRD3-BD1, 1.6 µM; on BRD4-BD1 it was 4.8 µM; at BRD4-BD2, 81 µM; on BRDT, 10 µM. Further, the 2.1/2.2 at BRD2-BD2 is listed as above 1000.
As to `CC(=O)Nc1cccc(-c2ccc3c(c2)[C@H](NC(=O)CC(C)C)C[C@H](C)N3C(C)=O)c1` [compound 73], the EC50 at BRD2-BD1 amounted to 16 µM; on BRD2-BD2 it was 83 µM; at BRD3-BD1, 12 µM; at BRD4-BD1, 33 µM; on BRD4-BD2, 19 µM. The 2.1/2.2 on BRD2-BD2 was found to be 0.20.
On to `CC(=O)Nc1cccc(-c2ccc3c(c2)[C@H](NC(=O)CCc2ccccc2)C[C@H](C)N3C(C)=O)c1` [compound 74], for which the EC50 at BRD2-BD1 was determined as 11 µM; at BRD2-BD2 it was 17 µM; on BRD3-BD1, 9.8 µM; on BRD4-BD1 it was 19 µM; at BRD4-BD2, 77 µM. For the same molecule, the 2.1/2.2 on BRD2-BD2 is 0.65.
Turning to `CC(=O)Nc1cccc(-c2ccc3c(c2)[C@H](NCc2ccc(C(F)(F)F)cc2)C[C@H](C)N3C(C)=O)c1` [compound 75], the EC50 at BRD2-BD1 came out at 53 µM; at BRD2-BD2, 53 µM; at BRD3-BD1, 36 µM; on BRD4-BD1, 53 µM; at BRD4-BD2 it was 53 µM. For the same molecule, the 2.1/2.2 on BRD2-BD2 is recorded as 1.0.
With `CC(=O)Nc1ccc(N[C@@H]2C[C@H](C)N(C(C)=O)c3ccc(-c4cccc(NC(C)=O)c4)cc32)cc1` [compound 76], the EC50 on BRD2-BD1 was found to be 3.4 µM; on BRD2-BD2, 0.27 µM; on BRD3-BD1 it was 2.3 µM; on BRD4-BD1, 3.2 µM; on BRD4-BD2, 0.65 µM. Besides, the 2.1/2.2 at BRD2-BD2 is 12.
`CC(=O)N1c2ccc(-c3ccc4c(c3)OCCO4)cc2[C@H](NC(=O)OC(C)C)C[C@@H]1C` [compound 77]: the EC50 at BRD2-BD1 came out at 16 µM; at BRD2-BD2 it was 9.7 µM; on BRD3-BD1, 10 µM; on BRD4-BD1, 15 µM; on BRD4-BD2, 14 µM. For the same molecule, the 2.1/2.2 at BRD2-BD2 came to 1.6.
Take `CC(=O)N1c2ccc(-c3cccc(-n4cccn4)c3)cc2[C@H](NC(=O)OC(C)C)C[C@@H]1C` [compound 78]: the EC50 on BRD2-BD1 is 7.7 µM; on BRD2-BD2, 2.9 µM; on BRD3-BD1, 4 µM; on BRD4-BD1, 6.1 µM; at BRD4-BD2 it was 6.7 µM. Moreover, the 2.1/2.2 on BRD2-BD2 is recorded as 2.6.
`CC(=O)N1c2ccc(-c3ccc4cc[nH]c4c3)cc2[C@H](NC(=O)OC(C)C)C[C@@H]1C` [compound 79]: the EC50 on BRD2-BD1 is 7.1 µM; on BRD2-BD2 it was 2.7 µM; on BRD3-BD1, 2.2 µM; at BRD4-BD1 it was 8.2 µM; on BRD4-BD2, 8.8 µM. Besides, the 2.1/2.2 on BRD2-BD2 is listed as 2.6.
With `CC(=O)N1c2ccc(-c3ccc4occc(=O)c4c3)cc2[C@H](NC(=O)OC(C)C)C[C@@H]1C` [compound 80], the EC50 at BRD2-BD1 was found to be 6.3 µM; at BRD2-BD2 it was 1.1 µM; on BRD3-BD1, 2.1 µM; on BRD4-BD1, 5.3 µM; at BRD4-BD2, 4 µM. The 2.1/2.2 at BRD2-BD2 is recorded as 2.0.
For the molecule `CC(=O)N1c2ccc(-c3ccc4[nH]ccc4c3)cc2[C@H](NC(=O)OC(C)C)C[C@@H]1C` [compound 81], the EC50 at BRD2-BD1 came to 8 µM; on BRD2-BD2, 4.7 µM; on BRD3-BD1, 5.9 µM; at BRD4-BD1 it was 6.6 µM; at BRD4-BD2, 8.1 µM. On BRD2-BD2, the 2.1/2.2 came to 2.7.
In the case of `COC(=O)c1ccoc1-c1ccc2c(c1)[C@H](NC(=O)OC(C)C)C[C@H](C)N2C(C)=O` [compound 82], the EC50 on BRD2-BD1 was found to be 4 µM; at BRD2-BD2, 1.1 µM; at BRD3-BD1, 2.7 µM; at BRD4-BD1 it was 3.5 µM; on BRD4-BD2, 2 µM. At BRD2-BD2, the 2.1/2.2 turned out to be 6.0.
`CCOC(=O)c1ccc(-c2ccc3c(c2)[C@H](NC(=O)OC(C)C)C[C@H](C)N3C(C)=O)o1` [compound 83]: the EC50 on BRD2-BD1 was 7.5 µM; on BRD2-BD2, 1.6 µM; at BRD3-BD1 it was 4.3 µM; at BRD4-BD1, 6 µM; on BRD4-BD2, 3.4 µM. Moreover, the 2.1/2.2 at BRD2-BD2 was 1.7.
In the case of `CC(=O)N1c2ccc(-c3cccc(NC(=O)OC(C)(C)C)c3)cc2[C@H](NC(=O)OC(C)C)C[C@@H]1C` [compound 84], the EC50 at BRD2-BD1 came to 2.5 µM; on BRD2-BD2 it was 0.46 µM; at BRD3-BD1, 0.99 µM; at BRD4-BD1 it was 2.1 µM; at BRD4-BD2, 3.5 µM. The 2.1/2.2 on BRD2-BD2 is 2.5.
On to `CC(=O)N1c2ccc(C3=CCCO3)cc2[C@H](NC(=O)OC(C)C)C[C@@H]1C` [compound 85], for which the EC50 amounted to 13 µM at BRD2-BD1; 1.2 µM on BRD2-BD2; 4.8 µM on BRD3-BD1; 8.5 µM at BRD4-BD1; 12 µM at BRD4-BD2. Further, the 2.1/2.2 at BRD2-BD2 worked out at 3.6.
Turning to `CC(=O)N1c2ccc(-c3cc4ccccc4o3)cc2[C@H](NC(=O)OC(C)C)C[C@@H]1C` [compound 86], the EC50 on BRD2-BD1 amounted to 1.8 µM; on BRD2-BD2, 27 µM; at BRD3-BD1, 1 µM; at BRD4-BD1 it was 2.5 µM; at BRD4-BD2, 41 µM. Also, the 2.1/2.2 on BRD2-BD2 was 4.7.
For `CC(=O)N1c2ccc(-c3cccn(C)c3=O)cc2[C@H](NC(=O)OC(C)C)C[C@@H]1C` [compound 87], the EC50 on BRD2-BD1 was found to be 68 µM; at BRD2-BD2 it was 13 µM; at BRD3-BD1 it was 13 µM; at BRD4-BD1 it was 68 µM; on BRD4-BD2 it was 7.6 µM. Moreover, the 2.1/2.2 on BRD2-BD2 amounted to 5.4.
For `CC(=O)N1c2ccc(-c3cccc(CN)c3)cc2[C@H](NC(=O)OC(C)C)C[C@@H]1C` [compound 88], the EC50 is 2.1 µM at BRD2-BD1; 0.47 µM on BRD2-BD2; 1.4 µM on BRD3-BD1; 2.9 µM at BRD4-BD1; 0.65 µM on BRD4-BD2. In addition, the 2.1/2.2 at BRD2-BD2 is 11.
In the case of `CC(=O)N1c2ccc(-c3cccc(CCO)c3)cc2[C@H](NC(=O)OC(C)C)C[C@@H]1C` [compound 89], the EC50 at BRD2-BD1 stood at 1.6 µM; at BRD2-BD2 it was 0.43 µM; at BRD3-BD1, 0.87 µM; on BRD4-BD1, 1.4 µM; on BRD4-BD2 it was 1.7 µM. Also, the 2.1/2.2 on BRD2-BD2 amounted to 0.067.
For `CC(=O)Nc1cccc(-c2ccc3c(c2)[C@H](Nc2ccc(C(=O)O)cc2)C[C@H](C)N3C(C)=O)c1` [compound 120], the EC50 amounted to 33 µM on BRD2-BD1; 0.13 µM on BRD2-BD2; 4.9 µM at BRD3-BD1; 13 µM on BRD4-BD1; 0.17 µM at BRD4-BD2. The 2.1/2.2 on BRD2-BD2 is reported as 3.1.
